One assay deals with T1, PI3Kγ (Homo sapiens, UniProt P48736).
T1 construct: endogenous in cells; host or cells: Jurkat (ATCC TIB-152, clone E6-1) and Ramos (ATCC CRL-1596), 1:1 lysate mix
As to the kind of experiment: kinobeads assay, PI3Kγ. As to conditions: 1:1 mix of Jurkat and Ramos cell lysates, read-out: Inhibition values (IC50 in μM) as determined in the kinobeads assay, PI3Kγ. In kind it is binding. How it is done:
(§1) The compounds of the present invention as described were tested in the mTOR kinobeads assay as described below. Briefly, test compounds (at various concentrations) and the affinity matrix (1:1 mixture of beads with immobilized phenylthiazole ligand 1 and beads with immobilized phenylmorpholin-chromen ligand; WO 2009/098021) were added to cell lysate aliquots and allowed to bind to the proteins in the lysate sample. After the incubation time the beads with captured proteins were separated from the lysate. Bound proteins were then eluted and the presence of mTOR, PI3Kα, PI3Kβ, PI3Kγ, PI3Kδ and DNA-dependent protein kinase (DNA-PK) was detected and quantified using a specific antibody in a dot blot procedure and the Odyssey infrared detection system. Dose response curves for individual kinases were generated and IC50 values calculated. Kinobeads assays for PI3 kinases (WO-A 2008/015013) and for kinase selectivity profiling (WO 2009/098021) have been previously described.
(§2) Washing of Affinity Matrix
(§3) The affinity matrix was washed two times with 15 ml of 1×DP buffer containing 0.2% NP40 (IGEPAL® CA-630, Sigma, #13021) and then resupended in 5.5 ml of 1×DP buffer containing 0.2% NP40 (10% beads slurry).
(§4) 5×DP buffer: 250 mM Tris-HCl pH 7.4, 25% Glycerol, 7.5 mM MgCl2, 750 mM NaCl, 5 mM Na3VO4, filter the 5×-lysis buffer through 0.22 μm filter and store in aliquots at −80° C. The 5×DP buffer is diluted to 1×DP buffer containing 1 mM DTT and 25 mM NaF.
(§5) Preparation of Test Compounds
(§6) Stock solutions of test compounds were prepared in DMSO. In a 96 well plate 30 μl solution of diluted test compounds at 5 mM in DMSO were prepared. Starting with this solution a 1:3 dilution series (9 steps) was prepared. For control experiments (no test compound) a buffer containing 2% DMSO was used. Compound Pi-103 (Calbiochem catalogue number 528100) served as a positive control.
(§7) Cell Culture and Preparation of Cell Lysates
(§8) Jurkat cells (ATCC catalogue number TIB-152 Jurkat, clone E6-1) and Ramos cells (ATCC number CRL-1596) were grown in 1 litre Spinner flasks (Integra Biosciences, #182101) in suspension in RPMI 1640 medium (Invitrogen, #21875-034) supplemented with 10% Fetal Bovine Serum (Invitrogen) at a density between 0.15×10^6 and 1.2×10^6 cells/ml. Cells were harvested by centrifugation, washed once with 1×PBS buffer (Invitrogen, #14190-094) and cell pellets were frozen in liquid nitrogen and subsequently stored at −80° C.
(§9) Cells were homogenized in a Potter S homogenizer in lysis buffer: 50 mM Tris-HCl, 0.8% NP40, 5% glycerol, 150 mM NaCl, 1.5 mM MgCl2, 25 mM NaF, 1 mM sodium vanadate, 1 mM DTT, pH 7.5. One complete EDTA-free tablet (protease inhibitor cocktail, Roche Diagnostics, 1873580) per 25 ml buffer was added. The material was dounced 10 times using a mechanized POTTER S, transferred to 50 ml falcon tubes, incubated for 30 minutes on ice and spun down for 10 min at 20,000 g at 4° C. (10,000 rpm in Sorvall SLA600, precooled). The supernatant was transferred to an ultracentrifuge (UZ)-polycarbonate tube (Beckmann, 355654) and spun for 1 hour at 100.000 g at 4° C. (33.500 rpm in Ti50.2, precooled). The supernatant was transferred again to a fresh 50 ml falcon tube, the protein concentration was determined by a Bradford assay (BioRad) and samples containing 50 mg of protein per aliquot were prepared. The samples were immediately used for experiments or frozen in liquid nitrogen and stored frozen at −80° C.
(§10) Cell lysate (approximately 50 mg protein per plate) was thawed in a water bath at room temperature and then kept on ice. To the thawed cell lysate 1×DP 0.8% NP40 buffer containing protease inhibitors (1 tablet for 25 ml buffer; EDTA-free protease inhibitor cocktail; Roche Diagnostics 1873580) was added in order to reach a final protein concentration of 5 mg/ml total protein. For the kinobeads experiment a 1:1 mix of Jurkat and Ramos cell lysates was used. The diluted cell lysate was stored on ice. […]

The target in the next assay is T2, PI3Kα (Homo sapiens, UniProt P42336).
T2 construct: endogenous in cells; host or cells: Jurkat (ATCC TIB-152, clone E6-1) and Ramos (ATCC CRL-1596), 1:1 lysate mix
As to the kind of experiment: kinobeads assay, PI3Kα. The assay is classed as binding. Conditions: 1:1 mix of Jurkat and Ramos cell lysates, read-out: Inhibition values (IC50 in μM) as determined in the kinobeads assay, PI3Kα. How it is done: as §1, §2, §3, §4, §5, §6, §7, §8, §9, §10

The next assay deals with T3, PI3Kβ (Homo sapiens, UniProt P42338).
T3 construct: endogenous in cells; host or cells: Jurkat (ATCC TIB-152, clone E6-1) and Ramos (ATCC CRL-1596), 1:1 lysate mix
Kind of assay: kinobeads assay, PI3Kβ. In kind it is binding. As to conditions: 1:1 mix of Jurkat and Ramos cell lysates, read-out: Inhibition values (IC50 in μM) as determined in the kinobeads assay, PI3Kβ. How it is done:
as §1, §2, §3, §4, §5, §6, §7, §8, §9, §10

Assay [1] has as its target T4, DNA-dependent protein kinase (DNA-PK) (Homo sapiens, UniProt P78527).
T4 construct: endogenous in cells; host or cells: Jurkat (ATCC TIB-152, clone E6-1) and Ramos (ATCC CRL-1596), 1:1 lysate mix
Kind of assay: kinobeads assay, DNA-PK. The assay is classed as binding. As to conditions: 1:1 mix of Jurkat and Ramos cell lysates, read-out: Inhibition values (IC50 in μM) as determined in the kinobeads assay, DNA-PK. How it is done:
as §1, §2, §3, §4, §5, §6, §7, §8, §9, §10

The next assay concerns the target T5, PI3Kδ (Homo sapiens, UniProt O00329).
T5 construct: endogenous in cells; host or cells: Jurkat (ATCC TIB-152, clone E6-1) and Ramos (ATCC CRL-1596), 1:1 lysate mix
As to the kind of experiment: kinobeads assay, PI3Kδ. In kind it is binding. As to conditions: 1:1 mix of Jurkat and Ramos cell lysates, read-out: Inhibition values (IC50 in μM) as determined in the kinobeads assay, PI3Kδ. Here is the method:
as §1, §2, §3, §4, §5, §6, §7, §8, §9, §10

A further assay addresses T6, mTOR (Homo sapiens, UniProt P42345).
T6 construct: endogenous in cells; host or cells: Jurkat (ATCC TIB-152, clone E6-1) and Ramos (ATCC CRL-1596), 1:1 lysate mix
As to the kind of experiment: mTOR kinobeads assay (competition binding in cell lysate, dot blot detection). As to conditions: 1:1 mix of Jurkat and Ramos cell lysates, read-out: Inhibition values (IC50 in μM) as determined in the kinobeads assay, mTor. How it is done:
Determination of the Effect of the Compounds According to the Invention on mTOR
as §1, §2, §3, §4, §5, §6, §7, §8, §9
Cell lysate (approximately 50 mg protein per plate) was thawed in a water bath at room temperature and then kept on ice. To the thawed cell lysate 1×DP 0.8% NP40 buffer containing protease inhibitors (1 tablet for 25 ml buffer; EDTA-free protease inhibitor cocktail; Roche Diagnostics 1873580) was added in order to reach a final protein concentration of 5 mg/ml total protein. For the kinobeads experiment a 1:1 mix of Jurkat and Ramos cell lysates was used. […]

T1 sequence (P48736 whole entry): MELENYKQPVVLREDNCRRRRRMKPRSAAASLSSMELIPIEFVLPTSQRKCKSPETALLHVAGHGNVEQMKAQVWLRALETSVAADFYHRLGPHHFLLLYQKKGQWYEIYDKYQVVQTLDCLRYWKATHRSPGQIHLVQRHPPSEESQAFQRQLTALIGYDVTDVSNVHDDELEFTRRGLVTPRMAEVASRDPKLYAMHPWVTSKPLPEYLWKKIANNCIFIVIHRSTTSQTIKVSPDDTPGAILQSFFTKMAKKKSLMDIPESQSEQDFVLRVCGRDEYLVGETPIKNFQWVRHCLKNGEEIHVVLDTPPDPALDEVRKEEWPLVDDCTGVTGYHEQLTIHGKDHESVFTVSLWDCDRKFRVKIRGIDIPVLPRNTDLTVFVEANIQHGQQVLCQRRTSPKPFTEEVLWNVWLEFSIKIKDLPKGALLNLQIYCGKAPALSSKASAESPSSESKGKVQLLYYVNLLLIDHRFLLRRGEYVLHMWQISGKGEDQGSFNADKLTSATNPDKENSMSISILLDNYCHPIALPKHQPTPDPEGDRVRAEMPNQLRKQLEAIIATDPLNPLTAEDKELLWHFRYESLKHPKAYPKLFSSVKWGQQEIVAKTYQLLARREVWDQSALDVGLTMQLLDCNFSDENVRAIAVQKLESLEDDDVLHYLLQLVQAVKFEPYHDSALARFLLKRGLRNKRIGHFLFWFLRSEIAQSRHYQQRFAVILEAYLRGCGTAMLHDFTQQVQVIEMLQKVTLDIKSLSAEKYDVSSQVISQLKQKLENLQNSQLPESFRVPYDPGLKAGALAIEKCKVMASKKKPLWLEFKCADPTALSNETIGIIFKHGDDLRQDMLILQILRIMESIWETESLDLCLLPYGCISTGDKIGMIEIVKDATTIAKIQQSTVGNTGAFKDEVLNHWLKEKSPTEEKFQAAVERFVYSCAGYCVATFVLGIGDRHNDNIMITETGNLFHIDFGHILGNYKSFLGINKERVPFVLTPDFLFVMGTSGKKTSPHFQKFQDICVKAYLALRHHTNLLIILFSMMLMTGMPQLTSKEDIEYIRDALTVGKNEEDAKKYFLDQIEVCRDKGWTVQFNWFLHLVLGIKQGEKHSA
T2 sequence (P42336 whole entry): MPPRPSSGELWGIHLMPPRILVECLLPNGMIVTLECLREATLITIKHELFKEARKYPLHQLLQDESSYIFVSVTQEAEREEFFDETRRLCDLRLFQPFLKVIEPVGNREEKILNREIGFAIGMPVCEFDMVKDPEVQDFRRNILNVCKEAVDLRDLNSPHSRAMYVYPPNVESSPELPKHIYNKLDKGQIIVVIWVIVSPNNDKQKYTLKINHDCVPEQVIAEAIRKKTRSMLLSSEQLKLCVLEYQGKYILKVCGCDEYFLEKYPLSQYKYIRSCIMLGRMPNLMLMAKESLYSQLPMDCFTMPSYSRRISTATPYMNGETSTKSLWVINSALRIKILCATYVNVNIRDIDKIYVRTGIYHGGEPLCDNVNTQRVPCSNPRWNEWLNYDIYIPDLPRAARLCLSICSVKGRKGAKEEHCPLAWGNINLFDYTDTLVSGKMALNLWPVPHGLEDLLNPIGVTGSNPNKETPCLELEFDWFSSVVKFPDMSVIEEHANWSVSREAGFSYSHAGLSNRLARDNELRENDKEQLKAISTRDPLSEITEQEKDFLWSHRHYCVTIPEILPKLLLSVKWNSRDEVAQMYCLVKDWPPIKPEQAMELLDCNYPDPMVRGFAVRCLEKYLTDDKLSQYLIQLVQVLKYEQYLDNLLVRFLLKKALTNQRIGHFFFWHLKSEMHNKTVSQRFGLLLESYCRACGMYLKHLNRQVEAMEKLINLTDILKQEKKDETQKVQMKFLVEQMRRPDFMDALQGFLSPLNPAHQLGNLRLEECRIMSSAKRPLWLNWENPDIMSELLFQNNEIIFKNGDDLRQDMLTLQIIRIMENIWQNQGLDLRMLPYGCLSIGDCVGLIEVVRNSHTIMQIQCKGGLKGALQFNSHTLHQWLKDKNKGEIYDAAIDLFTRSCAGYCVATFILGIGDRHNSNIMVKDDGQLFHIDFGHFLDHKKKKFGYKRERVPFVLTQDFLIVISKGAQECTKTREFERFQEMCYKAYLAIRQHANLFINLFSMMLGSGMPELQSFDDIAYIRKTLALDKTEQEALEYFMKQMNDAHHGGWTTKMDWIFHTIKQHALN
T2 sequence (P27986 whole entry partner): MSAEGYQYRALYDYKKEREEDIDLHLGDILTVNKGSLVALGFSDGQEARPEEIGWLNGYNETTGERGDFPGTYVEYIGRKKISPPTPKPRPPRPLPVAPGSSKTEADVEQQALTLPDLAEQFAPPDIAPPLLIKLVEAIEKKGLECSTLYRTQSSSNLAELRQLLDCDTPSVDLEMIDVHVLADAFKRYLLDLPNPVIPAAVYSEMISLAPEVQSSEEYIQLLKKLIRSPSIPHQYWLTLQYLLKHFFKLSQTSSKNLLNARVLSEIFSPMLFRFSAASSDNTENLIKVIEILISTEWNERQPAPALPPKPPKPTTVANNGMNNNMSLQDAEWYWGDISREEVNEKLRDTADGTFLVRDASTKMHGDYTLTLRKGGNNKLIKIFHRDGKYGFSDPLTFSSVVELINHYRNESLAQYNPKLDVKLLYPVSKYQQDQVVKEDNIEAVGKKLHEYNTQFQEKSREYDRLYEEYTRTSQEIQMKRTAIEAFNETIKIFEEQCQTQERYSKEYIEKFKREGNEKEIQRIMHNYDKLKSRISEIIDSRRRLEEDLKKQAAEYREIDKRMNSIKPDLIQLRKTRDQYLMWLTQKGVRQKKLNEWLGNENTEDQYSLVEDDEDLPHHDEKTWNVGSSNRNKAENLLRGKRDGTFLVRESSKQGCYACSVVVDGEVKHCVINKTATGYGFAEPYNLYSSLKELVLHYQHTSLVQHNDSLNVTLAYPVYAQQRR
T5 sequence (O00329 whole entry): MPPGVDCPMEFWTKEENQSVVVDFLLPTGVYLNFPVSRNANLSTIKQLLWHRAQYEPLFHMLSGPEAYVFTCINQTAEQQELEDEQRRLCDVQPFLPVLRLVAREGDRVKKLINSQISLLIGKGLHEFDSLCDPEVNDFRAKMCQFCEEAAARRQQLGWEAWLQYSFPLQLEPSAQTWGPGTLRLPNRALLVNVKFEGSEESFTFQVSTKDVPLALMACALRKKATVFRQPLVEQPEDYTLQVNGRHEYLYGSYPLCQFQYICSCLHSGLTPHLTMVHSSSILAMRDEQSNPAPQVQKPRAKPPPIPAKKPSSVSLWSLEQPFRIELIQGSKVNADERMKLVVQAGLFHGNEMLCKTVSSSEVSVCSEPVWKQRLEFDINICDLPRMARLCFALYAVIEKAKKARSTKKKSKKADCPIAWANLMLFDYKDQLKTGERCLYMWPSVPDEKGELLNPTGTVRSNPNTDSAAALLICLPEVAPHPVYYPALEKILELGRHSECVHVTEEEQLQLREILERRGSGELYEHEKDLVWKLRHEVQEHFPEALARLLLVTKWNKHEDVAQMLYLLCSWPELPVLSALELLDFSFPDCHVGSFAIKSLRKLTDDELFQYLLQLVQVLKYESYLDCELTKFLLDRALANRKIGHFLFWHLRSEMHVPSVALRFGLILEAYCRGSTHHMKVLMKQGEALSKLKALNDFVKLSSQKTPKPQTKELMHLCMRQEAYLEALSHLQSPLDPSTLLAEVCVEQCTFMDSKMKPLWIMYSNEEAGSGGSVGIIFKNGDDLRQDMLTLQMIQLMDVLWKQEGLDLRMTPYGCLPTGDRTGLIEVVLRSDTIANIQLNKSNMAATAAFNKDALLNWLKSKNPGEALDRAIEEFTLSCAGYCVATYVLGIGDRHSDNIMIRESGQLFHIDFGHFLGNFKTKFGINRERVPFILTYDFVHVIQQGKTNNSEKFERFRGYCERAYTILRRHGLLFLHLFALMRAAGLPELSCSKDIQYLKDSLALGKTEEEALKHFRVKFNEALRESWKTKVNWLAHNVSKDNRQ
T5 sequence (P27986 whole entry partner): as the sequence (P27986 whole entry partner) above
T3 sequence (P42338 whole entry): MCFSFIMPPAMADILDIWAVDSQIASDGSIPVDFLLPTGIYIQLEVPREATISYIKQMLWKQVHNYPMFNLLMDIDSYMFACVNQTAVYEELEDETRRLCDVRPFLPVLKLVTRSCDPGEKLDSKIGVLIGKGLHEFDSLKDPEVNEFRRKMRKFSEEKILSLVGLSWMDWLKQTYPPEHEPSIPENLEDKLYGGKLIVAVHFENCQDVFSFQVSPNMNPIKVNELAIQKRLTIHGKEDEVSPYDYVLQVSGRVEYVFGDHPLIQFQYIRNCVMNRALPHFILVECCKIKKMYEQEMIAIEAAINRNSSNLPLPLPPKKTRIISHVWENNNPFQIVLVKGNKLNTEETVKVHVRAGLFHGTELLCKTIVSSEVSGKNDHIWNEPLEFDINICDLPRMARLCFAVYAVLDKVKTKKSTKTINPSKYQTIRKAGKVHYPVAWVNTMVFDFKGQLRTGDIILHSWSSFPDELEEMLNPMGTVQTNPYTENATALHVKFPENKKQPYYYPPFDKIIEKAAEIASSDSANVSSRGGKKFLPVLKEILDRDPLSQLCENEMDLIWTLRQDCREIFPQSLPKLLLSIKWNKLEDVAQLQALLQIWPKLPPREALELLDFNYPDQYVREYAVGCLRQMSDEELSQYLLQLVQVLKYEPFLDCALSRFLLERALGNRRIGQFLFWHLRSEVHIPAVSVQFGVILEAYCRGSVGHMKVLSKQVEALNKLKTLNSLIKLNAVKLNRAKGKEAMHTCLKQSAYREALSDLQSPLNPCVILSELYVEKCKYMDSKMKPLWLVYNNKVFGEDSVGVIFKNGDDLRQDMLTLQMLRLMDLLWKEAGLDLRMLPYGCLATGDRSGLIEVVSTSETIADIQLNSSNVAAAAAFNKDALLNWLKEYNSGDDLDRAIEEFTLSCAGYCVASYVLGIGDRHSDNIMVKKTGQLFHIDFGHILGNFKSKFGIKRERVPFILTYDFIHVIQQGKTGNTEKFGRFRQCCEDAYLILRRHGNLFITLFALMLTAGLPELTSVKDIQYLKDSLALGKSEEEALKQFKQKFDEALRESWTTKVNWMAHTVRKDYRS
T3 sequence (P27986 whole entry partner): as the sequence (P27986 whole entry partner) above

A word on the IC50: it is the point on the concentration scale where inhibition reaches its midpoint. On to `C[C@H]1COCCN1c1nc2c(c(-c3ccc(NC(=O)Nc4ccncc4)cc3)n1)CNC2` [Example 24, (S)-1-(4-(2-(3-methylmorpholino)-6,7-dihydro-5H-pyrrolo[3,4-d]pyrimidin-4-yl)phenyl)-3-(pyridin-4-yl)urea], for which the IC50 at PI3Kγ is 10 to 100 µM; at PI3Kα it was 10 to 100 µM; at PI3Kβ it was 10 to 100 µM; in assay [1], more than 100 µM; at PI3Kδ it was 10 to 100 µM; at mTOR, 1 to 10 µM.

For `C[C@H]1COCCN1c1nc2c(c(-c3ccc(NC(=O)Nc4cccc(O)n4)cc3)n1)CNC2` [Example 25, (S)-1-(6-hydroxypyridin-2-yl)-3-(4-(2-(3-methylmorpholino)-6,7-dihydro-5H-pyrrolo[3,4-d]pyrimidin-4-yl)phenyl)urea], the IC50 at PI3Kγ is 1 to 10 µM; at PI3Kα, 1 to 10 µM; at PI3Kβ it was 1 to 10 µM; in assay [1] it was more than 100 µM; at PI3Kδ, 10 to 100 µM; on mTOR it was 0.1 to 1 µM.

Turning to `C[C@@H]1COCCN1c1nc2c(c(-c3ccc(NC(=O)NC4CC4)cc3)n1)CNC2` [Example 26, (R)-1-cyclopropyl-3-(4-(2-(3-methylmorpholino)-6,7-dihydro-5H-pyrrolo[3,4-d]pyrimidin-4-yl)phenyl)urea], the half-maximal inhibitory concentration (IC50) at PI3Kγ was more than 100 µM; at PI3Kα, more than 100 µM; on PI3Kβ, 10 to 100 µM; in assay [1], more than 100 µM; at PI3Kδ, 10 to 100 µM; on mTOR, 0.1 to 1 µM.

In the case of `COCC(=O)N1Cc2nc(N3CCOC[C@@H]3C)nc(-c3ccc(NC(=O)NC4CC4)cc3)c2C1` [Example 27, (S)-1-cyclopropyl-3-(4-(6-(2-methoxyacetyl)-2-(3-methylmorpholino)-6,7-dihydro-5H-pyrrolo[3,4-d]pyrimidin-4-yl)phenyl)urea], the IC50 on PI3Kγ is more than 100 µM; at PI3Kα it was 10 to 100 µM; at PI3Kβ, 10 to 100 µM; in assay [1] it was more than 100 µM; at PI3Kδ, 10 to 100 µM; at mTOR, 1 to 10 µM.

In the case of `C[C@H]1COCCN1c1nc2c(c(-c3ccc(NC(=O)NC4CC4)cc3)n1)CN(C(=O)CN)C2` [Example 28, (S)-1-(4-(6-(2-aminoacetyl)-2-(3-methylmorpholino)-6,7-dihydro-5H-pyrrolo[3,4-d]pyrimidin-4-yl)phenyl)-3-cyclopropylurea], the half-inhibitory concentration (IC50) was 10 to 100 µM on PI3Kγ; 10 to 100 µM at PI3Kα; 10 to 100 µM on PI3Kβ; more than 100 µM in assay [1]; 10 to 100 µM at PI3Kδ; 1 to 10 µM at mTOR.

As to `C[C@H]1COCCN1c1nc2c(c(-c3ccc(NC(=O)NC4CC4)cc3)n1)CN(C(=O)CCN)C2` [Example 29, (S)-1-(4-(6-(3-aminopropanoyl)-2-(3-methylmorpholino)-6,7-dihydro-5H-pyrrolo[3,4-d]pyrimidin-4-yl)phenyl)-3-cyclopropylurea], the half-maximal inhibitory concentration (IC50) on PI3Kγ is 10 to 100 µM; on PI3Kα, 10 to 100 µM; on PI3Kβ, 10 to 100 µM; in assay [1], more than 100 µM; on PI3Kδ, 10 to 100 µM; at mTOR, 1 to 10 µM.

On to `C[C@H]1COCCN1c1nc2c(c(-c3ccc(NC(=O)NC4CC4)cc3)n1)CN(C(=O)CCCN)C2` [Example 30, (S)-1-(4-(6-(4-aminobutanoyl)-2-(3-methylmorpholino)-6,7-dihydro-5H-pyrrolo[3,4-d]pyrimidin-4-yl)phenyl)-3-cyclopropylurea], for which the half-inhibitory concentration (IC50) was more than 100 µM at PI3Kγ; 10 to 100 µM on PI3Kα; 10 to 100 µM at PI3Kβ; more than 100 µM in assay [1]; 10 to 100 µM at PI3Kδ; 1 to 10 µM at mTOR.

As to `COCCC(=O)N1Cc2nc(N3CCOC[C@@H]3C)nc(-c3ccc(NC(=O)NC4CC4)cc3)c2C1` [Example 31, (S)-1-cyclopropyl-3-(4-(6-(3-methoxypropanoyl)-2-(3-methylmorpholino)-6,7-dihydro-5H-pyrrolo[3,4-d]pyrimidin-4-yl)phenyl)urea], the half-maximal inhibitory concentration (IC50) is more than 100 µM at PI3Kγ; more than 100 µM at PI3Kα; 10 to 100 µM on PI3Kβ; more than 100 µM in assay [1]; 10 to 100 µM on PI3Kδ; 0.1 to 1 µM at mTOR.

Regarding `C[C@H]1COCCN1c1nc2c(c(-c3ccc(NC(=O)NC4CC4)cc3)n1)CN(C(=O)CCCN(C)C)C2` [Example 32, (S)-1-cyclopropyl-3-(4-(6-(4-(dimethylamino)butanoyl)-2-(3-methylmorpholino)-6,7-dihydro-5H-pyrrolo[3,4-d]pyrimidin-4-yl)phenyl)urea], the IC50 on PI3Kγ is 10 to 100 µM; on PI3Kα, more than 100 µM; on PI3Kβ it was 1 to 10 µM; in assay [1] it was 10 to 100 µM; at PI3Kδ it was 10 to 100 µM; at mTOR, 1 to 10 µM.

For `C[C@H]1COCCN1c1nc2c(c(-c3ccc(NC(=O)NC4CC4)cc3)n1)CN(C(=O)C1CCCO1)C2` (stereo partly drawn) [Example 33, 1-cyclopropyl-3-(4-(2-((S)-3-methylmorpholino)-6-(tetrahydrofuran-2-carbonyl)-6,7-dihydro-5H-pyrrolo[3,4-d]pyrimidin-4-yl)phenyl)urea], the IC50 on PI3Kγ is more than 100 µM; at PI3Kα it was more than 100 µM; on PI3Kβ, 10 to 100 µM; in assay [1], more than 100 µM; on PI3Kδ, 10 to 100 µM; on mTOR, 1 to 10 µM.

Turning to `CC(C)N1Cc2nc(N3CCOC[C@@H]3C)nc(-c3ccc(NC(=O)NCCO)cc3)c2C1` [Example 34, (S)-1-(2-hydroxyethyl)-3-(4-(6-isopropyl-2-(3-methylmorpholino)-6,7-dihydro-5H-pyrrolo[3,4-d]pyrimidin-4-yl)phenyl)urea 2,2,2-trifluoroacetate], the IC50 is 10 to 100 µM on PI3Kγ; 10 to 100 µM on PI3Kα; 10 to 100 µM at PI3Kβ; more than 100 µM in assay [1]; 10 to 100 µM at PI3Kδ; 0.1 to 1 µM at mTOR.

Source of the values: patent US20140163023A1, “DIHYDROPYRROLO PYRIMIDINE DERIVATIVES AS MTOR INHIBITORS” (Cellzome Limited, priority 2011, published 2014).
